From PMC6332194, “Synthesis of C3/C1-Substituted Tetrahydroisoquinolines” (Molecules, 2015) come the findings set out here.

Usually inhibition stands for the drop in the measured response relative to a control, in per cent.

Experiment in all cases: fluorogenic peptide-AMC hydrolysis assay
Common to all, as to type: biochemical

Assay [1] addresses T1, human 20S proteasome, β5-subunits (chymotrypsin-like activity) (Homo sapiens, UniProt P28074).
T1 construct: gene PSMB5; commercial 20S core particle (Biomol GmbH); with Proteasome subunit beta type-1; Proteasome subunit beta type-6; Proteasome subunit beta type-7; Proteasome subunit beta type-3; Proteasome subunit beta type-2; Proteasome subunit beta type-4; Proteasome subunit alpha type-6; Proteasome subunit alpha type-2; Proteasome subunit alpha type-4; Proteasome subunit alpha type-7; Proteasome subunit alpha type-5; Proteasome subunit alpha type-1; Proteasome subunit alpha type-3
T1 sequence (P28074 60-263): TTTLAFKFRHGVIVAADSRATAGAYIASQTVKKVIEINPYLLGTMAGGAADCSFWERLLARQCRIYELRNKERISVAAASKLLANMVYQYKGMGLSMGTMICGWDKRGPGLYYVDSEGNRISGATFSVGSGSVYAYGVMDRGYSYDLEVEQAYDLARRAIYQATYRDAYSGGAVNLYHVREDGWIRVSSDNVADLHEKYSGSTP

Assay [2] concerns the target T2, human 20S proteasome, β2-subunits (trypsin-like activity) (Homo sapiens, UniProt Q99436).
T2 construct: gene PSMB7; commercial 20S core particle (Biomol GmbH); with Proteasome subunit beta type-3; Proteasome subunit beta type-5; Proteasome subunit beta type-6; Proteasome subunit beta type-1; Proteasome subunit beta type-2; Proteasome subunit beta type-4; Proteasome subunit alpha type-6; Proteasome subunit alpha type-2; Proteasome subunit alpha type-4; Proteasome subunit alpha type-7; Proteasome subunit alpha type-5; Proteasome subunit alpha type-1; Proteasome subunit alpha type-3
T2 sequence (Q99436 44-277): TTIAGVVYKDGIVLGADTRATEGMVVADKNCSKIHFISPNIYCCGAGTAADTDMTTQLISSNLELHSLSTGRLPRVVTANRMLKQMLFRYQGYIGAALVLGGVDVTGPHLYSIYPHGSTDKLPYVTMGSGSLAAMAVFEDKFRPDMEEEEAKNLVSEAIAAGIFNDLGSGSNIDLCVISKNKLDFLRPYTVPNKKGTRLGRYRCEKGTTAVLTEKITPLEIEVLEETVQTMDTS

The target of assay [3] is T3, recombinant Leishmania mexicana cysteine protease CPB2.8 (Leishmania mexicana, UniProt P36400).
T3 construct: gene LMCPB; recombinant; often used without C-terminal extension
T3 sequence (P36400 126-340): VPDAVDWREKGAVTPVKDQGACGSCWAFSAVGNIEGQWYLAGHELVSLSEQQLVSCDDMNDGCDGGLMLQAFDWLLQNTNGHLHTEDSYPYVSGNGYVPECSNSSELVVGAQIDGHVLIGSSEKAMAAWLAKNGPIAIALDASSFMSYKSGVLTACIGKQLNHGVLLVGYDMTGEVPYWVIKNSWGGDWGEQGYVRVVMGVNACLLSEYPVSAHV

For the compound `COc1cc2c(cc1O)[C@@H](C)N(C)CC2` [compound 2, N-methylisosalsoline], the inhibition at 20 µM is roughly 40% in assay [1], roughly 20% in assay [2] and roughly 14% in assay [3].
